Measured values published in patent publication US6624162B2, “Imidazopyridine compounds as 5-HT4 receptor modulators” (Pfizer Inc., priority 2001, dated 2003).

Biological target: T1, 5-HT4 receptors (Rattus norvegicus, UniProt Q62758)
T1 construct: The remaining inner tube of smooth muscle was known as the TMM; from tissue; host or cells: rat oesophagus tunica muscularis mucosae (TMM), male SD rats (Charles River)
Experiment: Functional assay: rat oesophagus TMM relaxation
Conditions: carbachol-contracted rat oesophagus TMM, 1 μM antagonist
From the text: More specifically, partial agonist activity can be measured according to the following procedures.
Male SD rats (Charles River) weighing 250-350 g were stunned and then killed by cervical dislocation. The oesophagus was dissected from immediately proximal to the stomach (including piece of stomach to mark distal end) up to the level of the trachea and then placed in fresh Krebs' solution.
The outer skeletal muscle layer was removed in one go by peeling it away from the underlying smooth muscle layer using forceps (stomach to tracheal direction). The remaining inner tube of smooth muscle was known as the TMM. This was trimmed to 2 cm from the original ‘stomach-end’ and the rest discarded.
The TMMs were mounted as whole ‘open’ tubes in longitudinal orientation in 5 ml organ baths filled with warm (32° C.) aerated Krebs. Tissues were placed under an initial tension of 750 mg and allowed to equilibrate for 60 minutes. The tissues were re-tensioned twice at 15 minute intervals during the equilibration period. The pump flow rate was set to 2 ml/min during this time.
Following equilibration, the pump was switched off. The tissues were exposed to 1 μM carbachol and contracted and reached a steady contractile plateau within 15 minutes. Tissues were then subject to 1 μM 5-HT (this was to prime the tissues). The tissues relaxed in response to 5-HT fairly rapidly—within 1 minute. […]

T1 sequence (Q62758 whole entry): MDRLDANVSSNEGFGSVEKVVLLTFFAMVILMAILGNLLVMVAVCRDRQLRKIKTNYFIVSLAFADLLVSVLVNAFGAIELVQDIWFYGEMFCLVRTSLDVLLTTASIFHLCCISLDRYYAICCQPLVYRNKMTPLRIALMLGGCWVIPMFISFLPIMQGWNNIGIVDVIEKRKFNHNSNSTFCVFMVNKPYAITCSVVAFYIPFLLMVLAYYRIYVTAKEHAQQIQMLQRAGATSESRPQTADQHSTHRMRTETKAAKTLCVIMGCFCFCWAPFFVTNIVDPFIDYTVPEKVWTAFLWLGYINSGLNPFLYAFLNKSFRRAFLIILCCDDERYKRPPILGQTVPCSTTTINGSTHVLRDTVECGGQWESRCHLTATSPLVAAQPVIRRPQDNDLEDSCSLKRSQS

**Q.** With `O=C(OCCN1CCCCC1)c1c[nH]c2ccccc12` [SB 203,186, 1H-Indole-3-carboxylic acid, 2-(1-piperidinyl)ethyl ester] as the compound, how does the “reversal of 5-HT induced relaxation” value read?
**A.** Its value is “reversed 5-HT induced relaxation”.

Test system: not given
Experiment: not given
Conditions: not given

**Q.** Which melting point does the source give for `CCCCN1CCC(CNC(=O)c2cc(Cl)c(N)n3cc(-c4ccccc4)nc23)CC1.Cl` here?
**A.** Its melting point is 263 °C.

**Q.** For `COCCCN1CCC(CNC(=O)c2cc(Cl)c(N)n3cc(C)nc23)CC1`, which melting point is on record?
**A.** The melting point was 167 °C.

**Q.** For `Cc1cn2c(N)c(Cl)cc(C(=O)NCC3CCN(CC(C)C)CC3)c2n1`, which melting point is on record?
**A.** The melting point was 216 to 219 °C.

**Q.** Which melting point does the source give for `CCc1cn2c(N)c(Cl)cc(C(=O)NC3CCN(CCCOC)CC3)c2n1` here?
**A.** The melting point was 179 °C.

**Q.** Which melting point does the source give for `CCCCN1CCC(CNC(=O)c2ccc(N)n3cc(C(C)C)nc23)CC1` here?
**A.** Its melting point is 138 °C.

**Q.** For `CCCc1cn2c(N)ccc(C(=O)NC3CCN(CCCOC)CC3)c2n1.Cl`, which melting point is on record?
**A.** The melting point was 238 °C.

**Q.** For `CCCCN1CCC(CNC(=O)c2cc(Cl)c(N)n3cc(C)nc23)CC1`, which melting point is on record?
**A.** The melting point was 188 to 191 °C.

**Q.** For `CCCCN1CCC(CNC(=O)c2ccc(N)n3cc(CC)nc23)CC1`, which melting point is on record?
**A.** Its melting point is 139 to 145 °C.

**Q.** With `CCCc1cn2c(N)c(Cl)cc(C(=O)NC3CCN(CCCOC)CC3)c2n1.Cl` as the compound, how does the melting point read?
**A.** The melting point was 243 °C.

**Q.** Which melting point does the source give for `CCc1cn2c(N)c(Cl)cc(C(=O)NCC3CCN(CCC(C)(C)C)CC3)c2n1` here?
**A.** The melting point was 234 °C.

**Q.** Which melting point does the source give for `CNc1c(Cl)cc(C(=O)NCC2CCN(CCCOC)CC2)c2nccn12` here?
**A.** The melting point was 125 °C.

**Q.** With `CCCCN1CCC(CNC(=O)c2cc(Cl)c(N)n3cc(C(C)C)nc23)CC1` as the compound, how does the melting point read?
**A.** The melting point was 168 °C.

**Q.** With `COC(C)(C)CN1CCC(CNC(=O)c2cc(Cl)c(N)n3cc(C)nc23)CC1` as the compound, how does the melting point read?
**A.** The melting point was 211 °C.

**Q.** For `CCCCN1CCC(CNC(=O)c2ccc(N)n3cc(Cl)nc23)CC1`, which melting point is on record?
**A.** The melting point was 113 °C.

**Q.** With `CCc1cn2c(N)c(Cl)cc(C(=O)NCC3CCN(CC(C)(C)OC)CC3)c2n1` as the compound, how does the melting point read?
**A.** Its melting point is 211 °C.

**Q.** Which melting point does the source give for `CCc1cn2c(N)c(Cl)cc(C(=O)NCC3CCNCC3)c2n1` here?
**A.** Its melting point is 153 °C.

**Q.** With `CCCCN1CCC(CNC(=O)c2ccc(N)n3cc(CCC)nc23)CC1` as the compound, how does the melting point read?
**A.** Its melting point is 172 °C.

**Q.** Which melting point does the source give for `CCCCN1CCC(CNC(=O)c2cc(Cl)c(NC)n3ccnc23)CC1` here?
**A.** The melting point was 148 °C.

**Q.** With `CCCCN1CCC(CNC(=O)c2ccc(N)n3cc(-c4ccccc4)nc23)CC1` as the compound, how does the melting point read?
**A.** Its melting point is 221 °C.
